In US9796733B2, “Imidazo-pyrazine derivatives useful as soluble guanylate cyclase activators” (Merck Sharp & Dohme Corp., priority 2014, dated 2017):
pEC50: −log10 of the molar value.

Target: T1, sGC α1/β1 heterodimer (Homo sapiens, UniProt Q02108+Q02153)
T1 construct: expressed in transfected cells; host or cells: CHO-K1 (clone #7, CHO-K1/sGC)
T1 sequence (Q02108 1-690): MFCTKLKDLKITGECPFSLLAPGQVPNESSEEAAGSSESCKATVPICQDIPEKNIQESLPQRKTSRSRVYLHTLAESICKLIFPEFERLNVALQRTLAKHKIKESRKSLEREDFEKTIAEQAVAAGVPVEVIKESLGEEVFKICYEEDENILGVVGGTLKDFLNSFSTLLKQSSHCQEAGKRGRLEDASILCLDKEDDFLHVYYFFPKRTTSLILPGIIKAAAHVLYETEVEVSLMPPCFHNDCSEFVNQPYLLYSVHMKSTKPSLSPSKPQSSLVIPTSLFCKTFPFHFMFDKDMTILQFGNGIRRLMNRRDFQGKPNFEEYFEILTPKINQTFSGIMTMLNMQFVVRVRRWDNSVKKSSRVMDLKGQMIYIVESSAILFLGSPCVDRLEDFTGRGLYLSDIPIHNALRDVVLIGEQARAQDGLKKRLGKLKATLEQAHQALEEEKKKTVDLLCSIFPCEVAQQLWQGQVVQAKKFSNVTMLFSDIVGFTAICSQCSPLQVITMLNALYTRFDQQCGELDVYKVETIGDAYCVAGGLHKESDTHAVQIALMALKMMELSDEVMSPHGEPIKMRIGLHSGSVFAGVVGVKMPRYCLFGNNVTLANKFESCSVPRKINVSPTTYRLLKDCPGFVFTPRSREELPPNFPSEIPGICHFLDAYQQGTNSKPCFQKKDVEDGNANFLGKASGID
T1 sequence (Q02153 1-619): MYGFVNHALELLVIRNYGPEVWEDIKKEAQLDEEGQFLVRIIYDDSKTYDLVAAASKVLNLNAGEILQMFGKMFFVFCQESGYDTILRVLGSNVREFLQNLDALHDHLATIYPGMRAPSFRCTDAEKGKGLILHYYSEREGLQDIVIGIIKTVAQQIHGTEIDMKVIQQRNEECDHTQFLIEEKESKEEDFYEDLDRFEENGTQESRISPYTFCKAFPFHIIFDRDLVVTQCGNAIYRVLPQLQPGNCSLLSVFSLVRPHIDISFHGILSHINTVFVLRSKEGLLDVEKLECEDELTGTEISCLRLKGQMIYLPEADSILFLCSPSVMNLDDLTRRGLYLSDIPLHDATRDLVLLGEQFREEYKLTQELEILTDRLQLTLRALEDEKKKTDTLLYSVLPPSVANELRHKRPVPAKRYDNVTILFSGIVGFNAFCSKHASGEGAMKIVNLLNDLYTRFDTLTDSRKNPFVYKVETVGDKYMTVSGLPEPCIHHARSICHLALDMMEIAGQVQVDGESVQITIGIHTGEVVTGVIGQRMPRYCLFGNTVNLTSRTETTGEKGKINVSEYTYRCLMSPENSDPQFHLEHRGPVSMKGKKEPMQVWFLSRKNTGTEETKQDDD
Assay: Cell-based sGC functional assay (CASA assay): cGMP generation in CHO-K1/sGC cells, HTRF detection
Details: for Emax: CHO-K1, percent activation relative to standard Compound A in CHO-K1/sGC cells, read-out: % Act.; for pEC50: inflection point (IP) of cGMP generation in CHO-K1/sGC cells, 4P fit, activity expressed as percentage of Compound A
In short: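 cGMP was quantified by HTRF after 1 hr, 37° C exposure of thawed CHO-K1 cells expressing sGC α1/β1 to compound, with or without 1 μM DETA-NO. IBMX (0.5 mM) blocked cGMP breakdown, and DMSO was 2.5% final. Percent of standard Compound A's maximal cGMP was fitted (4P) for inflection point.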

| Emax | pEC50 | SMILES |
| --- | --- | --- |
| 96% | 6.41 | CC1(c2ccc(OC(F)(F)F)cc2)C(=O)Nc2nc(-c3cn4ccnc4cn3)nc(N)c21 (stereo not shown) [Example 145A, 4-amino-2-(imidazo[1,2-a]pyrazin-6-yl)-5-methyl-5-(4-(trifluoromethoxy)phenyl)-5H-pyrrolo[2,3-d]pyrimidin-6(7H)-one] |
| 95% | 6.34 | Nc1nc(-c2cn3ccnc3cn2)nc2c1C(c1ccc(Cl)cc1)(C1CC1)C(=O)N2 (stereo not shown) [Example 146B, 4-amino-5-(4-chlorophenyl)-5-cyclopropyl-2-(imidazo[1,2-a]pyrazin-6-yl)-5H-pyrrolo[2,3-d]pyrimidin-6(7H)-one] |
| 120% | 7.92 | CC1(c2ccc(F)cc2)C(=O)Nc2nc(-c3cn4cc(C(F)(F)F)nc4c(Cc4ccccc4F)n3)nc(N)c21 (stereo not shown) [Example 147A, 4-amino-2-(8-(2-fluorobenzyl)-2-(trifluoromethyl)imidazo[1,2-a]pyrazin-6-yl)-5-(4-fluorophenyl)-5-methyl-5H-pyrrolo[2,3-d]pyrimidin-6(7H)-one] |
| 148% | 7.62 | CC1(c2ccc(F)cc2)C(=O)Nc2nc(-c3cn4cc(C(F)(F)F)nc4c(Cc4cccc(F)c4F)n3)nc(N)c21 (stereo not shown) [Example 148A, 4-amino-2-(8-(2,3-difluorobenzyl)-2-(trifluoromethyl)imidazo[1,2-a]pyrazin-6-yl)-5-(4-fluorophenyl)-5-methyl-5H-pyrrolo[2,3-d]pyrimidin-6(7H)-one] |
| 111% | 7.66 | CC1(c2ccc(F)cc2)C(=O)Nc2nc(-c3cn4cc(C(F)(F)F)nc4c(Cc4cccc(F)c4)n3)nc(N)c21 (stereo not shown) [Example 149A, 4-amino-2-(8-(3-fluorobenzyl)-2-(trifluoromethyl)imidazo[1,2-a]pyrazin-6-yl)-5-(4-fluorophenyl)-5-methyl-5H-pyrrolo[2,3-d]pyrimidin-6(7H)-one] |
| 122% | 7.54 | CC1(c2ccc(Cl)cc2)C(=O)Nc2nc(-c3cn4cc(C(F)(F)F)nc4c(Cc4cccc(F)c4)n3)nc(N)c21 (stereo not shown) [Example 150A, 4-amino-5-(4-chlorophenyl)-2-(8-(3-fluorobenzyl)-2-(trifluoromethyl)imidazo[1,2-a]pyrazin-6-yl)-5-methyl-5H-pyrrolo[2,3-d]pyrimidin-6(7H)-one] |
| 106% | 7.72 | CC1(c2ccc(Cl)cc2)C(=O)Nc2nc(-c3cn4cc(C(F)(F)F)nc4c(Cc4ccccc4F)n3)nc(N)c21 (stereo not shown) [Example 151A, 4-amino-5-(4-chlorophenyl)-2-(8-(2-fluorobenzyl)-2-(trifluoromethyl)imidazo[1,2-a]pyrazin-6-yl)-5-methyl-5H-pyrrolo[2,3-d]pyrimidin-6(7H)-one] |
| 129% | 7.37 | CC1(c2ccc(F)cc2)C(=O)Nc2nc(-c3cn4cc(C(F)(F)F)nc4c(Cc4ccc(F)c(F)c4)n3)nc(N)c21 (stereo not shown) [Example 152A, 4-amino-2-(8-(3,4-difluorobenzyl)-2-(trifluoromethyl)imidazo[1,2-a]pyrazin-6-yl)-5-(4-fluorophenyl)-5-methyl-5H-pyrrolo[2,3-d]pyrimidin-6(7H)-one] |
| 110% | 7.43 | CC1(c2ccc(Cl)cc2)C(=O)Nc2nc(-c3cn4cc(C(F)(F)F)nc4c(Cc4ccc(F)cc4)n3)nc(N)c21 (stereo not shown) [Example 153A, 4-amino-5-(4-chlorophenyl)-2-(8-(4-fluorobenzyl)-2-(trifluoromethyl)imidazo[1,2-a]pyrazin-6-yl)-5-methyl-5H-pyrrolo[2,3-d]pyrimidin-6(7H)-one] |
| 112% | 6.89 | CC1(c2ccc(F)cc2)C(=O)Nc2nc(-c3cn4cc(C(F)(F)F)nc4c(Cc4ccc(F)cc4)n3)nc(N)c21 (stereo not shown) [Example 155A, 4-amino-2-(8-(4-fluorobenzyl)-2-(trifluoromethyl)imidazo[1,2-a]pyrazin-6-yl)-5-(4-fluorophenyl)-5-methyl-5H-pyrrolo[2,3-d]pyrimidin-6(7H)-one] |

More lines, now with the values behind:

| SMILES | Emax | pEC50 |
| --- | --- | --- |
| CC(C)(C)CCc1nc(-c2nc(N)c3c(n2)NC(=O)C3(C)c2ccc(F)cc2)cn2ccnc12 (stereo not shown) [Example 121A, 4-amino-2-(8-(3,3-dimethylbutyl)imidazo[1,2-a]pyrazin-6-yl)-5-(4-fluorophenyl)-5-methyl-5H-pyrrolo[2,3-d]pyrimidin-6(7H)-one] | 145% | 7.25 |
| CC(C)(C)CCc1nc(-c2nc(N)c3c(n2)NC(=O)C3(C)c2ccc(F)cn2)cn2ccnc12 (stereo not shown) [Example 122B, 4-amino-2-(8-(3,3-dimethylbutyl)imidazo[1,2-a]pyrazin-6-yl)-5-(5-fluoropyridin-2-yl)-5-methyl-5H-pyrrolo[2,3-d]pyrimidin-6(7H)-one] | 119% | 7.04 |
| CC(C)(C)CCc1nc(-c2nc(N)c3c(n2)NC(=O)C3(C)c2ccc(Cl)cn2)cn2ccnc12 (stereo not shown) [Example 123A, 4-amino-5-(5-chloropyridin-2-yl)-2-(8-(3,3-dimethylbutyl)imidazo[1,2-a]pyrazin-6-yl)-5-methyl-5H-pyrrolo[2,3-d]pyrimidin-6(7H)-one] | 105% | 7.21 |
| CC(C)Cc1nc(-c2nc(N)c3c(n2)NC(=O)C3(C)c2ccc(Cl)cn2)cn2ccnc12 (stereo not shown) [Example 125A, 4-amino-5-(5-chloropyridin-2-yl)-2-(8-isobutylimidazo[1,2-a]pyrazin-6-yl)-5-methyl-5H-pyrrolo[2,3-d]pyrimidin-6(7H)-one] | 97% | 7.39 |
| CC(C)Cc1nc(-c2nc(N)c3c(n2)NC(=O)C3(c2ccc(Cl)cn2)C2CC2)cn2ccnc12 (stereo not shown) [Example 126B, 4-amino-5-(5-chloropyridin-2-yl)-5-cyclopropyl-2-(8-isobutylimidazo[1,2-a]pyrazin-6-yl)-5H-pyrrolo[2,3-d]pyrimidin-6(7H)-one] | 160% | 6.62 |
| CC(C)Cc1nc(-c2nc(N)c3c(n2)NC(=O)C3(c2ccc(C(F)(F)F)cn2)C2CC2)cn2ccnc12 (stereo not shown) [Example 127A, 4-amino-5-cyclopropyl-2-(8-isobutylimidazo[1,2-a]pyrazin-6-yl)-5-(5-(trifluoromethyl)pyridin-2-yl)-5H-pyrrolo[2,3-d]pyrimidin-6(7H)-one] | 105% | 6.29 |
| CC(C)Cc1nc(-c2nc(N)c3c(n2)NC(=O)C3(C)c2ccc(C(F)(F)F)cc2)cn2ccnc12 (stereo not shown) [Example 128B, 4-amino-2-(8-isobutylimidazo[1,2-a]pyrazin-6-yl)-5-methyl-5-(4-(trifluoromethyl)phenyl)-5H-pyrrolo[2,3-d]pyrimidin-6(7H)-one] | 108% | 6.79 |
| CC(C)Cc1nc(-c2nc(N)c3c(n2)NC(=O)C3(C)c2ccc(OC(F)F)cn2)cn2ccnc12 (stereo not shown) [Example 130A, 4-amino-5-(5-(difluoromethoxy)pyridin-2-yl)-2-(8-isobutylimidazo[1,2-a]pyrazin-6-yl)-5-methyl-5H-pyrrolo[2,3-d]pyrimidin-6(7H)-one] | 119% | 6.49 |
| CCCCc1nc(-c2nc(N)c3c(n2)NC(=O)C3(c2ccc(C(F)(F)F)cn2)C2CC2)cn2ccnc12 (stereo not shown) [Example 133A, 4-amino-2-(8-butylimidazo[1,2-a]pyrazin-6-yl)-5-cyclopropyl-5-(5-(trifluoromethyl)pyridin-2-yl)-5H-pyrrolo[2,3-d]pyrimidin-6(7H)-one] | 129% | 7.43 |
| CC1(c2cc(F)cc(F)c2)C(=O)Nc2nc(-c3cn4ccnc4cn3)nc(N)c21 (stereo not shown) [Example 142B, 4-amino-5-(3,5-difluorophenyl)-2-(imidazo[1,2-a]pyrazin-6-yl)-5-methyl-5H-pyrrolo[2,3-d]pyrimidin-6(7H)-one] | 166% | 6.18 |
